experiment: In Vitro Measure of Sodium Channel Blocking Activity and Reversibility: One assay used to assess mechanism of action and/or potency of the compounds of the present invention involves the determination of lumenal drug inhibition of airway epithelial sodium currents measured under short circuit current (ISC) using airway epithelial monolayers mounted in Using chambers. This assay is described in detail in Hirsh, A. J., Zhang, J., Zamurs, A., et al. Pharmacological properties of N-(3,5-diamino-6-chloropyrazine-2-carbonyl)-N′-4-[4-(2,3-dihydroxypropoxy)phenyl]butyl-guanidine methanesulfonate (552-02), a novel epithelial sodium channel blocker with potential clinical efficacy for CF lung disease. J. Pharmacol. Exp. Ther. 2008; 325(1): 77-88. Cells obtained from freshly excised human, dog, sheep or rodent airways are seeded onto porous 0.4 micron Snapwell™ Inserts (CoStar), cultured at air-liquid interface (ALI) conditions in hormonally defined media, and assayed for sodium transport activity (ISC) while bathed in Krebs Bicarbonate Ringer (KBR) in Using chambers. All test drug additions are to the lumenal bath with half-log dose addition protocols (from 1×10−11 M to 3×10−5 M), and the cumulative change in ISC (inhibition) recorded. All drugs are prepared in dimethyl sulfoxide as stock solutions at a concentration of 1×10−2 M and stored at −20° C. […] After the maximal concentration ([…]) is administered, the lumenal bath is exchanged three times with fresh drug-free KBR solution, and the resultant ISC measured after each wash for approximately 5 minutes in duration. Reversibility is defined as the percent return to the baseline value for sodium current after the third wash. All data from the voltage clamps are collected via a computer interface and analyzed off-line.Dose-effect relationships for all compounds are considered and analyzed by the Prism 3.0 program.

Structure (SMILES) | IC50 [nM]
N=C(NCCCCc1ccc(CC[C@H](NCCCN(C[C@H](O)[C@@H](O)[C@H](O)[C@H](O)CO)C[C@H](O)[C@@H](O)[C@H](O)[C@H](O)CO)C(N)=O)c2c1CCCC2)NC(=O)c1nc(Cl)c(N)nc1N | 7.3
N=C(NCCCCc1ccc(CC[C@H](NCCCN(C[C@H](O)[C@@H](O)[C@H](O)[C@H](O)CO)C[C@H](O)[C@@H](O)[C@H](O)[C@H](O)CO)C(N)=O)cc1)NC(=O)c1nc(Cl)c(N)nc1N | 10.6
CCCCCCN(CCCN[C@@H](CCc1ccc(CCCCNC(=N)NC(=O)c2nc(Cl)c(N)nc2N)cc1)C(N)=O)C[C@H](O)[C@@H](O)[C@H](O)[C@H](O)CO | 2.6
N=C(NCCCCc1ccc2cc(CC[C@H](NCCCN(C[C@H](O)[C@@H](O)[C@H](O)[C@H](O)CO)C[C@H](O)[C@@H](O)[C@H](O)[C@H](O)CO)C(N)=O)ccc2c1)NC(=O)c1nc(Cl)c(N)nc1N | 12.5
N=C(NCCCCc1ccc(C[C@H](NCCCN(C[C@H](O)[C@@H](O)[C@H](O)[C@H](O)CO)C[C@H](O)[C@@H](O)[C@H](O)[C@H](O)CO)C(N)=O)cc1)NC(=O)c1nc(Cl)c(N)nc1N | 35.6
CCCCCCN(CCCN[C@@H](Cc1ccc(CCCCNC(=N)NC(=O)c2nc(Cl)c(N)nc2N)cc1)C(N)=O)C[C@H](O)[C@@H](O)[C@H](O)[C@H](O)CO | 2.9
N=C(NCCCCc1ccc(C[C@H](NCCCN(C[C@H](O)[C@@H](O)[C@H](O)[C@H](O)CO)C[C@H](O)[C@@H](O)[C@H](O)[C@H](O)CO)C(N)=O)c2c1CCCC2)NC(=O)c1nc(Cl)c(N)nc1N | 5.5
CCCCCCN(CCCN[C@@H](CCc1ccc(CCCCNC(=N)NC(=O)c2nc(Cl)c(N)nc2N)c2ccccc12)C(N)=O)C[C@H](O)[C@@H](O)[C@H](O)[C@H](O)CO | 14.3
CCCCCCN(CCCN[C@@H](Cc1ccc(CCCCNC(=N)NC(=O)c2nc(Cl)c(N)nc2N)c2ccccc12)C(N)=O)C[C@H](O)[C@@H](O)[C@H](O)[C@H](O)CO | 8.8
CCCCCCN(CCCN[C@@H](Cc1ccc(CCCCNC(=N)NC(=O)c2nc(Cl)c(N)nc2N)c2c1CCCC2)C(N)=O)C[C@H](O)[C@@H](O)[C@H](O)[C@H](O)CO | 8.4
CCCCCCN(CCCN[C@@H](CCc1ccc2cc(CCCCNC(=N)NC(=O)c3nc(Cl)c(N)nc3N)ccc2c1)C(N)=O)C[C@H](O)[C@@H](O)[C@H](O)[C@H](O)CO | 6
CCCCCCN(CCCN[C@@H](Cc1ccc2cc(CCCCNC(=N)NC(=O)c3nc(Cl)c(N)nc3N)ccc2c1)C(N)=O)C[C@H](O)[C@@H](O)[C@H](O)[C@H](O)CO | 11.3
N=C(NCCCCc1ccc(CC[C@H](NCCCN(C[C@H](O)[C@@H](O)[C@H](O)[C@H](O)CO)C[C@H](O)[C@@H](O)[C@H](O)[C@H](O)CO)C(N)=O)c2ccccc12)NC(=O)c1nc(Cl)c(N)nc1N | 24
N=C(NCCCCc1ccc2cc(C[C@H](NCCCN(C[C@H](O)[C@@H](O)[C@H](O)[C@H](O)CO)C[C@H](O)[C@@H](O)[C@H](O)[C@H](O)CO)C(N)=O)ccc2c1)NC(=O)c1nc(Cl)c(N)nc1N | 27.4
N=C(NCCCCc1ccc(C[C@H](NCCCN(C[C@H](O)[C@@H](O)[C@H](O)[C@H](O)CO)C[C@H](O)[C@@H](O)[C@H](O)[C@H](O)CO)C(N)=O)c2ccccc12)NC(=O)c1nc(Cl)c(N)nc1N | 40.8

From ChEMBL document CHEMBL5726776, “3,5-diamino-6-chloro-N-(N-(4-phenylbutyl)carbamimidoyl) pyrazine-2-carboxamide compounds” (2019)
